pEC50: −log10 of the molar value. Structures can show the parent of a compound that is named as a salt. Where two headings read alike, the source gives them in different places.
Legend:
Assay type in all cases: cell-based, human
OE33 cells [1] = assay: Epigenetic compound library screen (CellTiter-Glo, 72 h); details: OE33, 6μM; for cytotoxicity at 6 µM: Homo sapiens, read-out: % cell killing /control
Experimental: (§1) We tested a 163 compound epigenetic library that consists of inhibitors and activators of epigenetic modifying enzymes (writers, erasers and readers). All compounds were dissolved in 100% DMSO and tested in duplicate at a nominal test concentration of 6μM. Wells with assay buffer containing DMSO served as negative controls. 1000 exponentially growing cells were seeded per well in 384-well micro-titer plates and incubated in the presence of compounds in a humidified environment at 37°C and 5% CO2. After 72 hours of treatment, cell viability was assessed by measuring ATP levels via bioluminescence (CellTiter-Glo, Promega). […] Curve fitting and statistical analyses are performed in GraphPad prism.

EAC47 cells [2] = assay: as above; details: EAC47, 6μM; for cytotoxicity at 6 µM: Homo sapiens, read-out: % cell killing /control; for cytotoxicity at 6 µM / % cell killing /control: 72 h
Experimental: as §1

Flo-1 cells [3] = assay: as above; details: Flo-1, 6μM; for cytotoxicity at 6 µM: Homo sapiens, read-out: % cell killing /control
Experimental: as §1

Flo-1 cells [4] = assay: FDA library drug sensitivity testing (CellTiter-Glo, 72 h)
Text: (§2) OE33, OE19 and SKGT2 human esophageal adenocarcinoma cell lines were obtained from the European Collection of Cell Culture ([…]). Flo1, EAC42 and EAC47 cells were established in the Capobianco Laboratory. EAC42 and EAC47 human esophageal adenocarcinoma cell lines are derived from patients undergoing surgery at the Miller School of Medicine, University of Miami. The Capobianco laboratory obtained written informed consent from all patients and approval from the Institutional Research Ethics Committee.
(§3) Drug sensitivity testing (DST) was performed as described previously. […] Individual drugs were dissolved in 100% DMSO and tested in duplicates starting at a maximal test concentration of 10μM then over a 20,000-fold concentration range to generate dose response curves. Wells with assay buffer containing DMSO served as negative controls. 1000 exponentially growing cells were seeded per well in 384-well micro-titer plates and incubated in the presence of compounds in a humidified environment at 37°C and 5% CO2. After 72 hours of treatment, cell viability was assessed by measuring ATP levels via bioluminescence (CellTiter-Glo, Promega) according to manufactures recommendations. Interpretation of curve parameters was performed according to the modified drug sensitivity scoring (DSSmod) function developed by Swords et al. As a final step, the selective DSSmod (sDSSmod) for each drug in each patient screen is calculated according to the formula sDSSmod = DSSmod (patient cells)—DSSmod (normal cells). Given in this way, the sDSSmod incorporated information on each drug’s potency, efficacy, effect range and therapeutic index, making it possible to prioritize compounds over multiple parameters using a single numerical metric. In addition, this methodology allows us to rank compounds by cancer-selective efficacy for each individual patient. […] All calculations and scoring routines are implemented in MatLab and additional curve fitting and statistical analyses are performed in GraphPad prism.

EAC42 cells = assay: as above
Text: as §2
as §3, with “As a final step, the selective DSSmod (sDSSmod) for each drug in each patient screen is calculated according to the formula sDSSmod = DSSmod (patient cells)—DSSmod (normal cells).” left out, “metric.” for “metric. In addition, this methodology allows us to rank compounds by cancer-selective efficacy for each individual patient.”

OE33 cells [5] = assay: as above
Text: as §2
as §3, with “As a final step, the selective DSSmod (sDSSmod) for each drug in each patient screen is calculated according to the formula sDSSmod = DSSmod (patient cells)—DSSmod (normal cells).” left out, “metric.” for “metric. In addition, this methodology allows us to rank compounds by cancer-selective efficacy for each individual patient.”

SK-GT2 cells = assay: as above
Text: as §2
as §3, with “As a final step, the selective DSSmod (sDSSmod) for each drug in each patient screen is calculated according to the formula sDSSmod = DSSmod (patient cells)—DSSmod (normal cells).” left out, “metric.” for “metric. In addition, this methodology allows us to rank compounds by cancer-selective efficacy for each individual patient.”

EAC47 cells [6] = assay: as above
Text: as §2
as §3, with “As a final step, the selective DSSmod (sDSSmod) for each drug in each patient screen is calculated according to the formula sDSSmod = DSSmod (patient cells)—DSSmod (normal cells).” left out, “metric.” for “metric. In addition, this methodology allows us to rank compounds by cancer-selective efficacy for each individual patient.”

OE19 cells = assay: as above; details: sDSSmod = DSSmod (patient cells) - DSSmod (normal cells)
Text: as §2
as §3, with “As a final step, the selective DSSmod (sDSSmod) for each drug in each patient screen is calculated according to the formula sDSSmod = DSSmod (patient cells)—DSSmod (normal cells).” left out, “metric.” for “metric. In addition, this methodology allows us to rank compounds by cancer-selective efficacy for each individual patient.”

[7] = test system: normal esophageal epithelium cell line EACN42; assay: FDA library drug sensitivity testing (CellTiter-Glo, 72 h), normal control cells; design: key to DSS: modified drug sensitivity score (DSSmod) from dose-response curve fit; details: 72 h, EACN42 normal esophageal cells; for pEC50: cell viability (ATP), max test concentration 10μM; for DSS: drug sensitivity score
Method in brief: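 HPV E6-E7-immortalized normal human esophageal epithelial cells, 1000 per well, exposed 72 h at 37 °C to drugs in duplicate from 10μM top concentration across a 20,000-fold range. Viability by ATP bioluminescence; DMSO wells as negative control; curves scored with modified drug sensitivity score (DSSmod).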

[8] = Flo-1, sDSSmod = DSSmod (patient cells) - DSSmod (normal cells)
[9] = EAC42, sDSSmod = DSSmod (patient cells) - DSSmod (normal cells)
[10] = OE33, sDSSmod = DSSmod (patient cells) - DSSmod (normal cells)
[11] = SK-GT2, sDSSmod = DSSmod (patient cells) - DSSmod (normal cells)
[12] = EAC47, sDSSmod = DSSmod (patient cells) - DSSmod (normal cells)

Compound	sDSSmod (Flo-1 cells [4]; [8])	sDSSmod (EAC42 cells; [9])	sDSSmod (SK-GT2 cells; [11])	sDSSmod (EAC47 cells [6]; [12])	sDSSmod (OE19 cells)	pEC50 ([7]; Homo sapiens)	DSS [7]	also measured
Nc1nc(=O)n([C@H]2C[C@H](O)[C@@H](CO)O2)cc1F [2'-Deoxy-5-fluorocytidine]	–	–	–	–	–	–	–	cytotoxicity at 6 µM (OE33 cells [1]): 65.2%; cytotoxicity at 6 µM (EAC47 cells [2]): 86.8%
Nc1ncnc2c1c(I)cn2[C@@H]1O[C@H](CO)[C@@H](O)[C@H]1O [5-Iodotubercidin]	–	–	–	–	–	–	–	% cell killing /control (Flo-1 cells [3]): 50.40%
CC(C)[C@H](C(=O)Nc1ccc(C(=O)NO)cc1)c1ccccc1 [(S)-HDAC-42]	–	–	–	–	–	–	–	cytotoxicity at 6 µM (OE33 cells [1]): 89.3%; cytotoxicity at 6 µM (Flo-1 cells [3]): 84.6%; cytotoxicity at 6 µM (EAC47 cells [2]): 76.5%
CC[C@@H]1C(=O)N(C)c2cnc(Nc3ccc(C(=O)NC4CCN(C)CC4)cc3OC)nc2N1C1CCCC1 [BI-2536]	–	–	–	–	–	–	–	cytotoxicity at 6 µM (OE33 cells [1]): 77.6%; cytotoxicity at 6 µM (Flo-1 cells [3]): 95.9%; cytotoxicity at 6 µM (EAC47 cells [2]): 39.5%
O=C(/C=C/c1cccc(S(=O)(=O)Nc2ccccc2)c1)NO [Belinostat]	-19	10.9	-19.002	6.846	-19.002	5.97	19	sDSSmod (OE33 cells [5]; [10]): -19.002
CC(C)C[C@H](NC(=O)[C@H](Cc1ccccc1)NC(=O)c1cnccn1)B(O)O [Bortezomib]	-35.57	-21.0264	-35.5649	-23.5292	-35.5757	6.70	35.58	sDSSmod (OE33 cells [5]; [10]): -35.5757
O=C(/C=C/c1cccc(C(=O)NO)c1)NO [CBHA]	–	–	–	–	–	–	–	% cell killing /control (EAC47 cells [2]): 20.30%
Cc1sc2c(c1C)C(c1ccc(Cl)cc1)=N[C@@H](CC(N)=O)c1nnc(C)n1-2 [CPI203]	–	–	–	–	–	–	–	% cell killing /control (Flo-1 cells [3]): 48.79%; sensitivity in words (EAC47 cells [2]): sensitivity; % cell killing /control (EAC47 cells [2]): 43.29%
COc1ccc(-c2nc(N3CCOCC3)c3sc(CN(C)c4ncc(C(=O)NO)cn4)cc3n2)cn1 [CUDC-907]	–	–	–	–	–	–	–	cytotoxicity at 6 µM (OE33 cells [1]): 99.4%; cytotoxicity at 6 µM (Flo-1 cells [3]): 99.7%; cytotoxicity at 6 µM (EAC47 cells [2]): 115%
CC[C@@]1(O)C(=O)OCc2c1cc1n(c2=O)Cc2cc3ccccc3nc2-1 [Camptothecin]	-20.76	-13.5945	-11.3049	-15.9763	-34.9341	7.70	52.69	–
Cc1nc(Nc2ncc(C(=O)Nc3c(C)cccc3Cl)s2)cc(N2CCN(CCO)CC2)n1 [Dasatinib]	-12.8	-9.752	-12.8072	-10.2728	-12.8072	7.10	12.81	sDSSmod (OE33 cells [5]; [10]): -12.8072
CCN(CC)C(=S)SSC(=S)N(CC)CC [Disulfiram]	–	7.112	10.36	–	–	–	0	cytotoxicity at 6 µM (EAC47 cells [2]): 33.9%
Nc1nc(F)nc2c1ncn2[C@@H]1O[C@H](COP(=O)(O)O)[C@@H](O)[C@@H]1O [Fludara]	-5.23	-46.3431	-12.9068	-46.3431	-23.9486	7.30	46.34	sDSSmod (OE33 cells [5]; [10]): -12.9868
CC(C)n1c(/C=C/C(O)CC(O)CC(=O)O)c(-c2ccc(F)cc2)c2ccccc21 (stereo not drawn) [Fluvastatin sodium]	-9.71	-14.3727	-17.1525	-15.1417	-16.7184	5.97	17.36	sDSSmod (OE33 cells [5]; [10]): -10.5948
Cc1cc(C)cc(C(=O)NOCCCCCC(=O)NO)c1 [LMK 235]	–	–	–	–	–	–	–	% cell killing /control (OE33 cells [1]): 80.31%; % cell killing /control (EAC47 cells [2]): 62.72%
CN(C)c1ccc(C(=O)NCCCCCCC(=O)NO)cc1 [M-344]	–	–	–	–	–	–	–	% cell killing /control (OE33 cells [1]): 68.75%; % cell killing /control (Flo-1 cells [3]): 56.82%
O=Nc1ccc(O)c2ncccc12 [NSC-3852]	–	–	–	–	–	–	–	% cell killing /control (OE33 cells [1]): 42.71%
CN(C)Cc1c(C(=O)NCCOc2ccc(C(=O)NO)cc2)oc2ccccc12 [PCI-24781 (Abexinostat), Abexinostat]	–	–	–	–	–	–	–	cytotoxicity at 6 µM (OE33 cells [1]): 46%
O=C(/C=C/c1cccc(S(=O)(=O)Nc2ccccc2)c1)NO [PXD101]	–	–	–	–	–	–	–	cytotoxicity at 6 µM (OE33 cells [1]): 92.3%; cytotoxicity at 6 µM (Flo-1 cells [3]): 77.6%
CO[C@H]1C[C@@H]2CC[C@@H](C)[C@@](O)(O2)C(=O)C(=O)N2CCCC[C@H]2C(=O)O[C@H]([C@H](C)C[C@@H]2CC[C@@H](O)[C@H](OC)C2)CC(=O)[C@H](C)/C=C(\C)[C@@H](O)[C@@H](OC)C(=O)[C@H](C)C[C@H](C)/C=C/C=C/C=C/1C [Rapamycin]	-10.72	-6.15	-11.012	-8.931	-11.012	5.52	11.01	sDSSmod (OE33 cells [5]; [10]): -11.012
O=C(CCCCCCC(=O)Nc1ccccc1)NO [SAHA]	–	–	–	–	–	–	–	% cell killing /control (Flo-1 cells [3]): 46.32%
CCCCc1nc2cc(/C=C/C(=O)NO)ccc2n1CCN(CC)CC [SB 939]	–	–	–	–	–	–	–	cytotoxicity at 6 µM (OE33 cells [1]): 98.9%; cytotoxicity at 6 µM (Flo-1 cells [3]): 78.8%
O=C(CCCCCN1C(=O)c2cccc3cccc(c23)C1=O)NO [Scriptaid]	–	–	–	–	–	–	–	cytotoxicity at 6 µM (Flo-1 cells [3]): 32.5%
CO[C@H]1C[C@@H]2CC[C@@H](C)[C@@](O)(O2)C(=O)C(=O)N2CCCC[C@H]2C(=O)O[C@H]([C@H](C)C[C@@H]2CC[C@@H](OC(=O)C(C)(CO)CO)[C@H](OC)C2)CC(=O)[C@H](C)/C=C(\C)[C@@H](O)[C@@H](OC)C(=O)[C@H](C)C[C@H](C)/C=C/C=C/C=C/1C [Temsirolimus]	-11.93	-5.1083	-11.9329	-9.994	-11.9329	< 5.00	11.93	sDSSmod (OE33 cells [5]; [10]): -11.9329
CC[C@@]1(O)C(=O)OCc2c1cc1n(c2=O)Cc2cc3c(CN(C)C)c(O)ccc3nc2-1 [Topotecan HCl]	-20.26	-9.367	-13.0332	-11.6273	-36.6414	7.22	43.21	–
O=C(CCCCCCC(=O)Nc1ccccc1)NO [Vorinostat]	9.58	7.485	–	5.288	9.843	–	5.09	sDSSmod (OE33 cells [5]; [10]): 15.71
CC1(C)CCC2=C(O1)c1ccccc1C(=O)C2=O [β-Lapachone]	–	–	–	–	–	–	–	cytotoxicity at 6 µM (Flo-1 cells [3]): 40.9%
Bleomycin sulfate	–	–	–	–	-18.9933	–	30.58	sDSSmod (Flo-1 cells [4]): -18.12; sDSSmod (EAC42 cells): -29.1318; sDSSmod (OE33 cells [5]): -15.1946; sDSSmod (SK-GT2 cells): -29.9671; sDSSmod (EAC47 cells [6]): -29.4923; pEC50 [7]: 6.43
